Legend:
Conditions in all cases: safener II alone, 150 g/ha
[1] = tested on: TRZAS; assay: Greenhouse post-emergence test, damage to crop plant TRZAS; assay type: in vivo, spring wheat
From the text: (§1) For the post-emergence treatment, the test plants were first grown to a height of 3 to 20 cm, depending on the plant habit, and only then treated. Here, the herbicidal compositions were suspended or emulsified in water as distribution medium and sprayed using finely distributing nozzles. The respective component I was formulated as a 12% by weight strength emulsion concentrate, and component II as a 10% by weight suspension concentrate. Optionally components III can be used in their appropriate available formulation types. The components I, II and optionally III were introduced to the spray liquid with the amount of solvent system used for applying the active compound. The test period extended over 21 days. During this time, the plants were tended, and their response to the treatments with active compound was evaluated. The evaluation for the damage caused by the chemical compositions was carried out using a scale from 0 to 100%, compared to the untreated control plants. Here, 0 means no damage and 100 means complete destruction of the plants. […]

[2] = tested on: HORVW; assay: Greenhouse post-emergence test, damage to crop plant HORVW; assay type: in vivo, winter barley
From the text: as §1

[3] = tested on: ZEAMX; assay: Greenhouse post-emergence test, damage to crop plant ZEAMX; assay type: in vivo, corn
From the text: as §1

[4] = tested on: POLCO; assay: Greenhouse post-emergence test, herbicidal action against POLCO; assay type: in vivo, wild buckwheat
From the text: (§2) For the post-emergence treatment, the test plants were first grown to a height of 3 to 20 cm, depending on the plant habit, and only then treated. Here, the herbicidal compositions were suspended or emulsified in water as distribution medium and sprayed using finely distributing nozzles. The respective component I was formulated as a 12% by weight strength emulsion concentrate, and component II as a 10% by weight suspension concentrate. Optionally components III can be used in their appropriate available formulation types. The components I, II and optionally III were introduced to the spray liquid with the amount of solvent system used for applying the active compound. The test period extended over 21 days. During this time, the plants were tended, and their response to the treatments with active compound was evaluated. The evaluation for the damage caused by the chemical compositions was carried out using a scale from 0 to 100%, compared to the untreated control plants. Here, 0 means no damage and 100 means complete destruction of the plants. [table]

[5] = tested on: CHEAL; assay: Greenhouse post-emergence test, herbicidal action against CHEAL; assay type: in vivo, lambsquaters
From the text: as §2

[6] = tested on: ABUTH; assay: Greenhouse post-emergence test, herbicidal action against ABUTH; assay type: in vivo, velvetleaf
From the text: as §2

[7] = tested on: AMARE; assay: Greenhouse post-emergence test, herbicidal action against AMARE; assay type: in vivo, common amaranth
From the text: as §2

COc1ccccc1C(=O)NS(=O)(=O)c1ccc(C(=O)NC2CC2)cc1 [II, N-[[4-[(cyclopropylamino)carbonyl]phenyl]sulfonyl]-2-methoxybenzamide]
damaging effect on TRZAS [1]: has not shown damaging effect
damaging effect on HORVW [2]: has not shown damaging effect
damaging effect on ZEAMX [3]: has not shown damaging effect
herbicidal activity on POLCO [4]: has not shown herbicidal activity
herbicidal activity on CHEAL [5]: has not shown herbicidal activity
herbicidal activity on ABUTH [6]: has not shown herbicidal activity
herbicidal activity on AMARE [7]: has not shown herbicidal activity
